# Like-named read-outs stand apart in the source and are kept apart here.
# Columns and labels:
# [1] = Chemical parameters (assay and impurities) of the lyophilised formulations; format: physicochemical
# Experimental: The formulations were analysed and the data is tabulated below: […]
# [2] = cited from earlier work
# [3] = cited from earlier work; remark: listed apart in the source
structure (smiles),measurement,setting,value
"Cn1nnc2c(C(N)=O)ncn2c1=O [Temozolomide, 3-methyl-8-carbamoyl-imidazo[5,1-d]-1,2,3,5-tetrazin-4(3H)-one]",% Assay,[1],100.3%
same,% Impurities AIC,[1],0.02%
same,% Impurities Any other maximum impurity,[1],Not detected
same,% Impurities MTC-1,[1],Not detected
same,% Impurities Total impurities,[1],0.04%
same,Solubility in water,[2],only slightly soluble
same,Stability,[3]; acidic pH less than 5,stable
same,Stability,[3]; pH greater than 7,unstable

# From US20120283304A1, “Formulations of Temozolomide for Parenteral Administration” (SAHAJ LIFE SCIENCES PVT. LTD., priority 2009, published 2012)
